Publication PMC7235904, “Is Blood a Good Indicator for Detecting Antimicrobials in Meat? Evidence for the Development of In Vivo Surveillance Methods” (Antibiotics, 2020)
Read-outs that look alike come from different tables or passages of the source. Marks after values point to notes of the source that are not given here.

Experiments:
[1] = Antimicrobial residue concentration and depletion in muscle of treated pigs within the withdrawal period (LC-MS/MS or HPLC-FLD); assay type: in vivo; conditions: for concentration at 2 day of withdrawal period: withdrawal period Day 2, pig; for concentration at 3 day of withdrawal period: withdrawal period Day 3, pig
Excerpt: To obtain samples containing antimicrobial compounds administered in vivo, 93 piglets (62 female, 31 male) with an average weight of 43.00 ± 12.79 kg were provided at treatment onset. These piglets were untreated animals that remained on the premises of the Faculty of Veterinary Sciences at the University of Zaragoza (Zaragoza, Spain) 40 days before administration of the compounds. Both during the acclimatization and withdrawal periods, animals were fed ad libitum with a special mixed feed that was free of antibiotics ([…], Spain), and water was provided from a separated, controlled water circuit. Piglets were raised in separate pens depending on the antibiotic administrated. After administration, animals were slaughtered at preset intervals within the withdrawal period in order to obtain samples containing different antimicrobial concentrations above and below the MRLs for muscle. Figure S1 indicates the slaughter days and the withdrawal periods set by the manufacturer for each antimicrobial compound administered. Between one and three piglets were slaughtered on the same day post-administration. The day of slaughter was calculated from the first day after the last antimicrobial treatment dose. […] Apart from samples containing antimicrobial compounds administered in vivo, and as a part of the sample bank, 15 of the 93 piglets were slaughtered after the acclimatization period and before treatment onset. Animals were stunned and slaughtered following the guidelines established by European Council Regulation (EC) No. 1099/2009 [39] regarding the protection of animals at the time of slaughter or killing. A penetrative captive bolt gun was used to stun the pigs, positioning it firmly against the skin, in the middle of the forehead, 2 cm above the line of the eyes, aiming towards the tail. This was followed by complete exsanguination carried out by incision in the jugular furrow at the base of the neck to sever all the major blood vessels arising from the heart. The samples obtained from them were used as blank samples for analysis. […] Samples were immediately frozen at -20 °C until analysis. For HPLC-FLD analyses, matrix solid phase dispersion (MSPD) was used. A total of 1.00 ± 0.01 g of tissue was weighed. Internal quality control samples were spiked at this point. […] It was introduced into a 25 mL reservoir and compacted. Clean-up was made with 8 mL of hexane, and quinolones were eluted with 15 mL acetonitrile/methanol (1:1) acidified with acetic acid 1%. […] The extraction procedure for LC-MS/MS determination was based on Chico et al.. […] All samples were spiked with IS at this point, and calibrants and internal quality control samples were prepared by spiking the corresponding amount of standard working solution. A total of 200 μL of 0.1 M EDTA was added, followed by 10 mL of 70% methanol, and samples were vortexed for 30 s, swung for 15 min, and finally centrifuged at 4500 rcf for 10 min at a temperature below 10 °C (Heraeus Multifuge X3 FR, Heraeus, Hanau, Germany). Then, 500 μL of supernatant was collected and diluted by adding 1500 μL of water. Extracts were filtered through 0.2 μm pore filters directly into LC-MS/MS vials. […] Mobile phase consisted of eluent A: phosphoric acid with trimethylamine buffer (pH = 3), and eluent B: acetonitrile, in isocratic mode (21:79) with a flow rate of 1 mL/min. Injected volume was 50 μL. […] The same mobile phase and gradient conditions as in SCIEX instruments were applied. Injected volume was 10 μL. Two ESI+ MRM transitions were monitored for each compound (Table S5). […] Results were represented as the mean ± standard deviation using the PRISM program (GraphPad Software, Inc., San Diego, USA). The rates of elimination (λz) of antibiotics from muscle and blood were determined by regression analysis. […]

[2] = Antimicrobial residue concentration and depletion in blood (serum) of treated pigs within the withdrawal period (LC-MS/MS); assay type: in vivo
Excerpt: To obtain samples containing antimicrobial compounds administered in vivo, 93 piglets (62 female, 31 male) with an average weight of 43.00 ± 12.79 kg were provided at treatment onset. These piglets were untreated animals that remained on the premises of the Faculty of Veterinary Sciences at the University of Zaragoza (Zaragoza, Spain) 40 days before administration of the compounds. Both during the acclimatization and withdrawal periods, animals were fed ad libitum with a special mixed feed that was free of antibiotics ([…], Spain), and water was provided from a separated, controlled water circuit. Piglets were raised in separate pens depending on the antibiotic administrated. After administration, animals were slaughtered at preset intervals within the withdrawal period in order to obtain samples containing different antimicrobial concentrations above and below the MRLs for muscle. Figure S1 indicates the slaughter days and the withdrawal periods set by the manufacturer for each antimicrobial compound administered. Between one and three piglets were slaughtered on the same day post-administration. The day of slaughter was calculated from the first day after the last antimicrobial treatment dose. […] Apart from samples containing antimicrobial compounds administered in vivo, and as a part of the sample bank, 15 of the 93 piglets were slaughtered after the acclimatization period and before treatment onset. Animals were stunned and slaughtered following the guidelines established by European Council Regulation (EC) No. 1099/2009 [39] regarding the protection of animals at the time of slaughter or killing. A penetrative captive bolt gun was used to stun the pigs, positioning it firmly against the skin, in the middle of the forehead, 2 cm above the line of the eyes, aiming towards the tail. This was followed by complete exsanguination carried out by incision in the jugular furrow at the base of the neck to sever all the major blood vessels arising from the heart. The samples obtained from them were used as blank samples for analysis. Blood was collected not only from slaughtered animals, but also from living animals on each day of slaughter. […] For quinolones in blood serum samples, a LC-MS/MS method was set up using a SCIEX Exion LC coupled to TripleQuad 6500+ triple quadrupole detector equipped with an Acquity Ultra Performance Liquid Chromatography Ethylene Bridged Hybrid (UPLC BEH) C18 (1.7 μm, 2.1 × 100 mm) column. Mobile phase consisted of eluent A: 0.1% formic acid in water, and eluent B: 0.1% formic acid in acetonitrile at a flow rate of 0.4 mL/min. […] Injected volume was 5 μL. Analytes were detected using positive electrospray ionization (ESI+) in multiple reaction monitoring (MRM) mode, and two transitions were monitored for each compound of interest (Table S4). […] The same mobile phase and gradient conditions as in SCIEX instruments were applied. […] Two ESI+ MRM transitions were monitored for each compound (Table S5). […] Results were represented as the mean ± standard deviation using the PRISM program (GraphPad Software, Inc., San Diego, USA). The rates of elimination (λz) of antibiotics from muscle and blood were determined by regression analysis. The corresponding half-lives of elimination were calculated according to the following equation: Half-life of elimination.

[3] = forequarter muscle, intramuscular, read-out: Concentration in Forequarters
[4] = hindquarter muscle, intramuscular, read-out: Concentration in Hindquarters
[5] = loin muscle, intramuscular, read-out: Concentration in Loins
[6] = over the sample bank of treated piglets

- half-life ([1]; both sexes, intramuscular, pig muscle, T1/2=Ln(2)/λz, read-out: T1/2 half-life of elimination (MUSCLE) (converted)): 13.2 h
- concentration at 2 day of withdrawal period [1, 3]: 311 ± 22.6 ng/g
- concentration at 3 day of withdrawal period [1, 3]: 43 ng/g
- concentration at 2 day of withdrawal period [1, 4]: 351 ± 20.1 ng/g
- concentration at 3 day of withdrawal period [1, 4]: 40.5 ± 0.71 ng/g
- concentration at 2 day of withdrawal period [1, 5]: 349 ± 16.5 ng/g
- concentration at 3 day of withdrawal period [1, 5]: 49.5 ± 0.71 ng/g
- Maximum concentration value in Muscle [1, 6]: 1179.67 ± 41.88 µg/kg
- Minimum concentration value in Muscle [1, 6]: 14.00 ± 1.41 µg/kg
- Slope (MUSCLE) ([1]; pig muscle, regression of concentration over the withdrawal period, deep intramuscular treatment): −0.5494 ± 0.0237 ^a
- half-life ([2]; both sexes, intramuscular, pig blood serum, T1/2=Ln(2)/λz, read-out: T1/2 half-life of elimination (BLOOD) (converted)): 13.2 h
- Maximum concentration value in Blood [2, 6]: 4098.00 ± 201.34 µg/kg
- Minimum concentration value in Blood [2, 6]: 23.67 ± 20.23 µg/kg
- Slope (BLOOD) ([2]; pig blood serum, regression of concentration over the withdrawal period, deep intramuscular treatment): −0.5496 ± 0.02589 ^a
Structure (SMILES): COc1ccc(NS(=O)(=O)c2ccc(N)cc2)nn1 [Sulfamethoxypyridazine, sulfamethoxypyridazine]
